Assay results as given in US20250263677A1, “BIOCATALYTIC USE OF NONHEME IRON PROTEINS FOR MOLECULAR FUNCTIONALIZATION” (The Johns Hopkins University, priority 2022, published 2025).
Read-outs that look alike come from different tables or passages of the source.

Tests used:
Assay type in all cases: biochemical
[1] = molecular target: Streptomyces avermitilis (4-hydroxyphenyl)pyruvate dioxygenase (Sav HppD) variant Az1 V189A F216A P243A N245Q Q255A L367I, SEQ ID NO: 2 (Streptomyces avermitilis, UniProt Q53586, F216A/L367I/N245Q/P243A/Q255A/V189A); experiment: Kinetic analysis of 1NF azidation by purified Sav HppD Az1 (anaerobic, GCMS product quantification); conditions: Az1 vs wt
Description: (§1) FIG. 10 is a series of plots which summarize kinetics for non-heme iron enzyme mediated azidation reactions. The leftmost plot provides kinetics data for wild-type Sav HppD. The middle plot provides kinetics data for Az1 Sav HppD. The rightmost plot provides kinetics data for Az2 Sav HppD.
(§2) Protein expression was conducted following the protocols detailed in section (B). E. coli cells expressing non-heme iron enzyme variants were pelleted (4,000×g, 5 min, 4° C.) and stored at −20° C. for at least 24 hours. The cell pallet was then resuspended in 50 mM KPi buffer containing 100 mM NaCl and 20 mM imidazole (pH 7.5 at 25° C.) (10 mL buffer per gram of cell pellet). […] Fractions containing purified proteins were detected by SDS-PAGE, pooled and concentrated using Millipore® centrifugal filter. […] Final concentration was measured by absorbance at 280 nm using a NanoDrop spectrophotometer. The theoretical extinction coefficients (M^−1 cm^−1) used for Say HppD and its variants were calculated using ExPASy Bioinformatics Resources Portal. […]
(§3) Kinetic analyses for wild-type Sav HppD, Az1, and Az2 mediated 1NF azidation were performed in an anaerobic chamber. […] After centrifugation at 12,000 rpm for 10 mins, an aliquot (200 μL) of the organic layer was taken for GCMS analysis for product quantification.

[2] = molecular target: Streptomyces avermitilis (4-hydroxyphenyl)pyruvate dioxygenase (Sav HppD) variant Az2 V189A N191A S230L P243G N245F Q255P L367I, SEQ ID NO: 3 (Streptomyces avermitilis, UniProt Q53586, L367I/N191A/N245F/P243G/Q255P/S230L/V189A); experiment: Kinetic analysis of 1NF azidation by purified Sav HppD Az2 (anaerobic, GCMS product quantification); conditions: comparator not given
Description: as §1, §2, §3

[3] = Replacement of azide with other halide or pseudohalide anions, Sav HppD Az1 cell lysate
Description: We also tried to extend the scope of N-radical precursors and replace azide with other halide or pseudohalide anions, the results of which analyses are summarized in TABLE 5. For these analyses. ferrous ammonium sulfate (10 μL, 100 mM in water), sodium halide or pseudohalide solution (10 μL, 1 M in water), and N-fluoroamide substrate 1NF (10 μL, 400 mM in DME) were added to a 2 mL vial containing Sav HppD Az1 cell lysate (400 μL, obtained from OD600=20 cell suspension) in an anerobic chamber. The vial was capped and shaken at 680 rpm at room temperature for 24 hours. At the end of the reaction, the vial was opened and the reaction was quenched with 0.8 mL of a hexanes/ethylacetate solution (4:6 v/v) of internal standard 1,2,3-trimethoxybenzene (0.5 mM final concentration). The reaction mixture was transferred to a 2 mL microcentrifuge tube, vortexed (10 seconds, 3 times), then centrifuged (14,000×g, 5 min) to completely separate the organic and aqueous layers. […]

[4] = Sav HppD Az1 cell lysate (OD600=20), 1NF, GCMS peak area over internal standard, 24 hours

Sequence of Streptomyces avermitilis (4-hydroxyphenyl)pyruvate dioxygenase (Sav HppD) variant Az1 V189A F216A P243A N245Q Q255A L367I, SEQ ID NO: 2 (Q53586 whole entry V189A/F216A/P243A/N245Q/Q255A/L367I): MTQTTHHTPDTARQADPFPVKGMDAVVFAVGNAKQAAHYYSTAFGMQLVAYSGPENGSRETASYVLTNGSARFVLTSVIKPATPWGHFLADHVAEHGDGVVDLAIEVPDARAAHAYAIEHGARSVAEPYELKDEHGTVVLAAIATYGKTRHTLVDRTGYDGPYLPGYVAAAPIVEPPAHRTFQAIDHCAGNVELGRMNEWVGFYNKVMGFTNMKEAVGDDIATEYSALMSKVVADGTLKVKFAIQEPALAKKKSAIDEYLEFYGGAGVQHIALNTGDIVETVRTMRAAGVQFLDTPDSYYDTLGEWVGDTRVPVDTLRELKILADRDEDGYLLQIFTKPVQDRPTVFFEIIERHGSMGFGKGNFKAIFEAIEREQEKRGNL
Sequence of Streptomyces avermitilis (4-hydroxyphenyl)pyruvate dioxygenase (Sav HppD) variant Az2 V189A N191A S230L P243G N245F Q255P L367I, SEQ ID NO: 3 (Q53586 whole entry V189A/N191A/S230L/P243G/N245F/Q255P/L367I): as the sequence (Q53586 whole entry V189A/F216A/P243A/N245Q/Q255A/L367I) above, with N191A, A216F, S230L, A243G, Q245F, A255P counted along it

SMILES | IA/internal [3, 4] | IF/internal [3, 4] | further results
CCc1ccccc1C(=O)N(F)C(C)(C)C [1NF, N-(tert-butyl)-2-ethyl-N-fluorobenzamide] | – | – | increase in KM over the wild-type enzyme [1]: 1.7 fold; increase in kcat over the wild-type enzyme [1]: 4.1 fold; decrease in KM [2]: 6.6 fold; decrease in kcat [2]: 9 fold
[Br-].[Na+] [NaBr] | 2.4 | 0.04 | –
[Cl-].[Na+] [NaCl] | – | – | IA/internal [3]: 2.3; IF/internal [3]: 0.04
[F-].[Na+] [NaF] | 2.5 | 0.04 | –
O=N[O-].[Na+] [NaNO2] | – | – | IA/internal [3]: 1.9; IF/internal [3]: 0.03
N#C[O-].[Na+] [NaOCN] | 2.1 | 0.03 | –
N#C[S-].[Na+] [NaSCN] | 2.7 | 0.05 | –
